Like-named read-outs stand apart in the source and are kept apart here.
Columns and labels:
solubility = type: physicochemical; settings: in words
[1] = system: phenyl benzoquinone contortion; assay: phenyl benzoquinone contortion test (analgesic properties); type: in vivo, mouse; settings: 0.5 h
Protocol: The activity in the phenyl benzoquinone contortion test of […] et al., J. Pharm. Exptl. […] Dose expressed in mg/kg in the mouse, 30 minutes before intraperitoneal injection of the algogenic agent. The results are expressed in percentage variation of the number of contortions.

[2] = analgesic activity, test not specified; type: in vivo; settings: in words
[3] = mouse, oral, 30 minutes before intraperitoneal injection of the algogenic agent, read-out: ED50

SMILES | solubility (insoluble in) (solubility) | solubility (soluble in) (solubility) | ED50 [1, 3] | analgesic activity [2] | ED50 ([1]; Mus musculus, po)
CCCC(C(=O)OCC)n1nc(-c2ccc(OC)cc2)c(-c2ccc(OC)cc2)nc1=O (centres unmarked) [Example 5, 2-(1-ethoxycarbonyl-1-butyl)-3-oxo-5,6-di(paramethoxyphenyl)-as-triazine] | Insoluble in water, dilute bases and acids | Soluble in hot alcohols, benzene, methylene chloride, chloroform, ether | 16 mg/kg | – | –
CCOC(=O)C(C)n1nc(-c2ccc(O)cc2)c(-c2ccc(O)cc2)nc1=O (centres unmarked) [Example 2, 2-(1-ethoxycarbonyl-1-ethyl)-3-oxo-5,6-di(parahydroxyphenyl)-as-triazine] | Insoluble in water, dilute bases and acids, benzene, chloroform, methylene chloride, ether | Soluble in hot alcohols | – | – | –
CCOC(=O)C(C)n1nc(-c2ccc(Cl)cc2)c(-c2ccc(Cl)cc2)nc1=O (centres unmarked) [Example 9, 2-(1-ethoxycarbonyl-1-ethyl)-3-oxo-5,6-di (p-chlorophenyl)-as-triazine] | – | – | 10 mg/kg | effective analgesic agent | –
CCOC(=O)C(CC)n1nc(-c2ccc(OC)cc2)c(-c2ccc(OC)cc2)nc1=O (centres unmarked) [Example 4, 2-(1-ethoxycarbonyl-1-propyl)-3-oxo-5,6-di(paramethoxyphenyl)-as-triazine] | Insoluble in water, dilute bases and acids, ether | Soluble in hot alcohols, benzene, methylene chloride, chloroform | 11 mg/kg | – | –
CCOC(=O)C(C)n1nc(-c2ccc(C)cc2)c(-c2ccc(C)cc2)nc1=O (centres unmarked) [Example 8, 2-(1-ethoxycarbonyl-1-ethyl)-3-oxo-5,6-di(p-methylphenyl)-as-triazine] | – | – | 12 mg/kg | effective analgesic agent | –
COC(=O)C(C)n1nc(-c2ccc(OC)cc2)c(-c2ccc(OC)cc2)nc1=O (centres unmarked) [Example 6, 2-(1-methoxycarbonylethyl)-3-oxo-5,6-di(paramethoxyphenyl)-as-triazine] | Insoluble: Water, ether | Soluble in hot alcohols | 12 mg/kg | – | –
CCOC(=O)Cn1nc(-c2ccc(OC)cc2)c(-c2ccc(OC)cc2)nc1=O [Example 1, 2-ethoxy carbonyl-methyl-3-oxo-5,6-di(paramethoxyphenyl)-as-triazine] | Insoluble in water, dilute bases and acids | Soluble in methylene chloride, chloroform, ether; alcohols and hot benzene | – | – | –
CC(=O)Oc1ccccc1C(=O)O [Aspirin, reference compound] | – | – | – | – | 100 mg/kg
CCOC(=O)C(C)n1nc(-c2ccc(OC)cc2)c(-c2ccc(Cl)cc2)nc1=O (centres unmarked) [Example 10, 2-(1-ethoxycarbonyl-1-ethyl)-3-oxo-5,6-(p-chloro-p-methoxy)-5,6-as-triazine] | – | – | 12 mg/kg | effective analgesic agent | –
CCOC(=O)C(C)n1nc(-c2ccc(OC)cc2)c(-c2ccc(OC)cc2)nc1=O (centres unmarked) [Example 3, 2-(1-ethoxycarbonyl-1-ethyl)-3-oxo-5,6-di(paramethoxyphenyl)-as-triazine] | Insoluble in water, dilute bases and acids | Soluble in hot alcohols, benzene, chloroform, methylene chloride and ether | 13 mg/kg | – | –
O=C(OCC(O)CO)c1ccccc1Nc1ccnc2cc(Cl)ccc12 (centres unmarked) [Glaphenine, reference compound] | – | – | 35 mg/kg | – | –
CCOC(=O)C(C)n1nc(-c2ccccc2)c(-c2ccccc2)nc1=O (centres unmarked) [Example 7, 2-(1-ethoxycarbonyl-1-ethyl)-3-oxo-5,6-di (phenyl)-as-triazine] | – | – | 18 mg/kg | effective analgesic agent | –

Reference: patent US4677105A, “2-alkoxycarbonylalkyl-3-oxo-5,6-diaryl-as-triazines having utility as therapeutics” (PF Medicament, priority 1985, dated 1987)
